{"source": "patent US7238659B2", "about": "“Reducing axon degeneration with proteasome inhibitors” (Children's Medical Center Corporation, priority 2003, dated 2007)", "system": "transected axons from cultured sympathetic neurons", "assay": "Wallerian degeneration of transected axons in cultured sympathetic ganglia", "format": "cell-based, rat", "conditions": "untreated transected axons: early signs 8 hr post-axotomy", "description": "Inhibiting the ubiquitin-proteasome pathway delays Wallerian degeneration. Wallerian degeneration in most transected mammalian nerve fibers is a complex sequence that entails degradation of the axon, changes in the ensheathing and glial cells, alterations in the blood-tissue barriers, and responses of macrophage-lineage cells (reviewed by Griffin et al., 1995). To study the underlying mechanisms involved in the axon degeneration process, we have used the degeneration of transected axons from cultured primary neurons as models (Buckmaster et al., 1995; George et al., 1995; Wang et al., 2001). In cultured sympathetic ganglia derived from postnatal day 3 (p3) rats, soma-deprived axons undergo a typical degenerative process (herein, George et al., 1995; Wang et al., 2001). The severed axons first appear normal for 6-10 hr, depending upon the duration of culturing prior to axotomy. For sympathetic ganglia that have been cultured for 5 days, the severed axons begin to develop such signs of early degeneration as focal swelling and beading approximately 8 hrs after the axons had been separated from their cell bodies. In most cases, the axons would be completely degenerated and detached after 12-16 hr post-axotomy. Similar degenerative processes were also observed in other types of cultured neurons, such as chicken dorsal root ganglion neurons and retinal ganglion cells.\nWe examined whether UPS is involved in axotomy-triggered Wallerian degeneration by using specific pharmacological inhibitors. It is known that for UPS to degrade a specific substrate protein, the sequential action of three enzymes, including a ubiquitin activating enzyme (E1), a ubiquitin conjugating enzyme (E2), and a ubiquitin ligase (E3), is required to covalently link ubiquitin to the substrate. Poly-ubiquitinated proteins are then targeted for degradation by the 26S proteasome, which is composed of two 19S proteasome regulatory particles and a 20S core. Substrate ubiquitination may also be reversed by ubiquitin proteases (reviewed by Weissman, 2001). In spite of the existence of multiple E2 and E3 molecules, the final and common step in degrading polyubiquitinated protein substrates is through the 26S proteasome machinery. Consistent with previous evidence for the existence and functioning of the UPS in axons (Campbell and Holt, 2001, 2003), components of UPS machinery, such as subunit C2 of the proteasome 20S, were found in both intact and transected axons from sympathetic neurons. Thus, to perturb UPS activity we used two mechanistically different proteasome inhibitors, MG132, a peptide-based reversible proteasome inhibitor (Rock et al., 1994), and lactacystin, a […] irreversible proteasome inhibitor (Fenteany et al., 1995), both of which had been extensively used to inhibit UPS activity in many different cell types including cultured neurons (Campbell and Holt, 2001, 2003).\n24 hr post-axotomy when most of the axon debris has detached from the culture surface in control cultures, proteasome inhibitor-treated explants still retained many axons with some degeneration signs, which remained up to 36 hr post-axotomy.\n8 hr post-axotomy, approximately 90% of axons from control HSV-infected explants, and only about 40% of axons from HSV-UBP2-infected ones, developed a beading appearance. However, the protective effects of UBP2 overexpression were less robust than those of the proteasome inhibitors, presumably due to the low expression levels of UBP2.\nAs previous studies have implicated calpains, a class of calcium-dependent proteases, in Wallerian degeneration (George et al., 1995; Finn et al., 2000), we also examined the contribution of calpain activity in our assays with specific calpain inhibitors such as ALLN (Finn et al., 2000). […] 16 hr after axotomy when most of the transected axons from control cultures degenerated into debris, there were still remaining axon fibers in ALLN-treated cultures.", "note": "Peptide text beside a SMILES is read from it. * marks the point of attachment. Cbz = O=C(OCc1ccccc1)*"}
{"smiles": "CC(C)C[C@@H](C=O)NC(=O)[C@H](CC(C)C)NC(=O)[C@H](CC(C)C)NC(=O)OCc1ccccc1", "note": "[MG-132, Carbobenzoxy-L-leucyl-L-leucyl-L-leucinal] (Cbz-Leu-Leu-Leu-aldehyde)", "values": [{"measurement": "time post-axotomy until degeneration is shown", "result": 16, "unit": "h"}]}
